# Measurements as given in PubChem BioAssay (NCI).
#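 All cell lines were grown in 96-well plates and treated with compound for 48 hours. Here, GI50 denotes the concentration required for 50% inhibition of growth. TGI denotes the concentration required for complete inhibition of growth.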
# Tests used:
# Test in all cases: NCI anticancer screen, dose series, 48 h
# [1] = tested on: 786-0 renal
# [2] = tested on: A498 renal
# [3] = tested on: A549 NSCLC
# [4] = tested on: ACHN renal
# [5] = tested on: BT-549 breast
# [6] = tested on: CAKI-1 renal
# [7] = tested on: CCRF-CEM leukemia
# [8] = tested on: COLO 205 colon
# [9] = tested on: DU-145 prostate
# [10] = tested on: EKVX NSCLC
# [11] = tested on: HCC-2998 colon
# [12] = tested on: HCT-116 colon
# [13] = tested on: HCT-15 colon
# [14] = tested on: HL-60(TB) leukemia
# [15] = tested on: HOP-62 NSCLC
# [16] = tested on: HOP-92 NSCLC
# [17] = tested on: HS 578T breast
# [18] = tested on: HT29 colon
# [19] = tested on: IGROV1 ovarian
# [20] = tested on: K-562 leukemia
# [21] = tested on: KM12 colon
# [22] = tested on: LOX IMVI melanoma
# [23] = tested on: M14 melanoma
# [24] = tested on: MALME-3M melanoma
# [25] = tested on: MCF7 breast
# [26] = tested on: MDA-MB-231 breast
# [27] = tested on: MDA-MB-435
# [28] = tested on: MOLT-4 leukemia
# [29] = tested on: NCI-H226 lung
# [30] = tested on: NCI-H23 lung
# [31] = tested on: NCI-H460 lung
# [32] = tested on: NCI-H522 lung
# [33] = tested on: NCI/ADR-RES ovarian
# [34] = tested on: OVCAR-3 ovarian
# [35] = tested on: OVCAR-4 ovarian
# [36] = tested on: OVCAR-5 ovarian
# [37] = tested on: OVCAR-8 ovarian
# [38] = tested on: PC-3 prostate
# [39] = tested on: RPMI-8226 leukemia
# [40] = tested on: RXF 393 renal
# [41] = tested on: SF-268 CNS
# [42] = tested on: SF-295 CNS
# [43] = tested on: SF-539 CNS
# [44] = tested on: SK-MEL-2 melanoma
# [45] = tested on: SK-MEL-28 melanoma
# [46] = tested on: SK-MEL-5 melanoma
# [47] = tested on: SK-OV-3 ovarian
# [48] = tested on: SN12C renal
# [49] = tested on: SNB-19 CNS
# [50] = tested on: SNB-75 CNS
# [51] = tested on: T-47D breast
# [52] = tested on: TK-10 renal
# [53] = tested on: U251 CNS
# [54] = tested on: UACC-257 melanoma
# [55] = tested on: UACC-62 melanoma
# [56] = tested on: UO-31 renal
# [57] = tested on: SW-620 colon
structure (smiles),measurement,setting,value
O=C(CCCCCNC1=CC(=O)c2ccccc2C1=O)NCCC[Te]c1ccccc1,GI50,[1],2000 nM
same,TGI,[1],4.17 µM
same,GI50,[2],302 nM
same,TGI,[2],1660 nM
same,GI50,[3],320 nM
same,TGI,[3],1540 nM
same,GI50,[4],408 nM
same,TGI,[4],1490 nM
same,GI50,[5],297 nM
same,TGI,[5],916 nM
same,GI50,[6],1700 nM
same,TGI,[6],3.93 µM
same,GI50,[7],251 nM
same,TGI,[7],774 nM
same,GI50,[8],416 nM
same,TGI,[8],1360 nM
same,GI50,[9],430 nM
same,TGI,[9],1900 nM
same,GI50,[10],259 nM
same,TGI,[10],928 nM
same,GI50,[11],798 nM
same,TGI,[11],2440 nM
same,GI50,[12],295 nM
same,TGI,[12],980 nM
same,GI50,[13],293 nM
same,TGI,[13],1400 nM
same,GI50,[14],0.315 µM
same,TGI,[14],4.4 µM
same,GI50,[15],272 nM
same,TGI,[15],731 nM
same,GI50,[16],0.583 µM
same,TGI,[16],1650 nM
same,GI50,[17],364 nM
same,TGI,[17],2650 nM
same,GI50,[18],377 nM
same,TGI,[18],1480 nM
same,GI50,[19],518 nM
same,TGI,[19],1890 nM
same,GI50,[20],720 nM
same,TGI,[20],3.83 µM
same,GI50,[21],351 nM
same,TGI,[21],1300 nM
same,GI50,[22],300 nM
same,TGI,[22],1400 nM
same,GI50,[23],473 nM
same,TGI,[23],1860 nM
same,GI50,[24],2210 nM
same,TGI,[24],4.21 µM
same,GI50,[25],327 nM
same,TGI,[25],4.66 µM
same,GI50,[26],236 nM
same,TGI,[26],606 nM
same,GI50,[27],1920 nM
same,TGI,[27],4.67 µM
same,GI50,[28],258 nM
same,TGI,[28],746 nM
same,GI50,[29],335 nM
same,TGI,[29],1230 nM
same,GI50,[30],336 nM
same,TGI,[30],1480 nM
same,GI50,[31],197 nM
same,TGI,[31],576 nM
same,GI50,[32],1750 nM
same,TGI,[32],81.5 µM
same,GI50,[33],425 nM
same,TGI,[33],4.62 µM
same,GI50,[34],676 nM
same,TGI,[34],2220 nM
same,GI50,[35],2210 nM
same,TGI,[35],7.59 µM
same,GI50,[36],362 nM
same,TGI,[36],1480 nM
same,GI50,[37],446 nM
same,GI50,[38],250 nM
same,TGI,[38],2580 nM
same,GI50,[39],291 nM
same,TGI,[39],1040 nM
same,GI50,[40],1540 nM
same,TGI,[40],4.11 µM
same,GI50,[41],359 nM
same,TGI,[41],1410 nM
same,GI50,[42],248 nM
same,TGI,[42],686 nM
same,GI50,[43],618 nM
same,TGI,[43],2150 nM
same,GI50,[44],2790 nM
same,TGI,[44],6.3 µM
same,GI50,[45],1210 nM
same,TGI,[45],3.34 µM
same,GI50,[46],1370 nM
same,TGI,[46],2670 nM
same,GI50,[47],487 nM
same,TGI,[47],1850 nM
same,GI50,[48],331 nM
same,TGI,[48],1560 nM
same,GI50,[49],1640 nM
same,TGI,[49],9.65 µM
same,GI50,[50],290 nM
same,TGI,[50],1480 nM
same,GI50,[51],676 nM
same,TGI,[51],2590 nM
same,GI50,[52],2050 nM
same,TGI,[52],6.04 µM
same,GI50,[53],356 nM
same,TGI,[53],1870 nM
same,GI50,[54],2400 nM
same,TGI,[54],6.33 µM
same,GI50,[55],1.32 µM
same,TGI,[55],3.37 µM
same,GI50,[56],311 nM
same,TGI,[56],1300 nM
O=C1NC(=O)C(N2CCc3ccccc32)=C1c1ccc(Cl)cc1,GI50,[1],> 10000 nM
same,TGI,[1],> 14.5 µM
same,GI50,[2],> 22400 nM
same,TGI,[2],> 25000 nM
same,GI50,[3],> 25000 nM
same,TGI,[3],> 25000 nM
same,GI50,[4],> 25000 nM
same,TGI,[4],> 25000 nM
same,GI50,[5],> 15500 nM
same,TGI,[5],> 25000 nM
same,GI50,[6],> 25000 nM
same,TGI,[6],> 25 µM
same,GI50,[7],> 25000 nM
same,TGI,[7],> 25000 nM
same,GI50,[8],> 25000 nM
same,TGI,[8],> 25000 nM
same,GI50,[9],> 25000 nM
same,TGI,[9],> 25000 nM
same,GI50,[10],> 24100 nM
same,TGI,[10],> 25000 nM
same,GI50,[11],> 25000 nM
same,TGI,[11],> 25000 nM
same,GI50,[12],> 10200 nM
same,TGI,[12],> 16600 nM
same,GI50,[13],> 25000 nM
same,TGI,[13],> 25000 nM
same,GI50,[14],24.3 µM
same,TGI,[14],> 25 µM
same,GI50,[15],> 25000 nM
same,TGI,[15],> 25000 nM
same,GI50,[16],6.38 µM
same,TGI,[16],> 25000 nM
same,GI50,[17],> 25000 nM
same,TGI,[17],> 25000 nM
same,GI50,[18],> 25000 nM
same,TGI,[18],> 25000 nM
same,GI50,[19],> 25000 nM
same,TGI,[19],> 25000 nM
same,GI50,[20],> 25000 nM
same,TGI,[20],> 25 µM
same,GI50,[21],> 25000 nM
same,TGI,[21],> 25000 nM
same,GI50,[22],> 25000 nM
same,TGI,[22],> 25000 nM
same,GI50,[23],> 25000 nM
same,TGI,[23],> 25000 nM
same,GI50,[24],> 25000 nM
same,TGI,[24],> 25 µM
same,GI50,[25],> 25000 nM
same,TGI,[25],> 25 µM
same,GI50,[26],> 25000 nM
same,TGI,[26],> 25000 nM
same,GI50,[27],> 25000 nM
same,TGI,[27],> 25 µM
same,GI50,[28],> 25000 nM
same,TGI,[28],> 25000 nM
same,GI50,[29],> 25000 nM
same,TGI,[29],> 25000 nM
same,GI50,[30],> 11400 nM
same,TGI,[30],> 25000 nM
same,GI50,[31],> 25000 nM
same,TGI,[31],> 25000 nM
same,GI50,[32],> 25000 nM
same,TGI,[32],> 25 µM
same,GI50,[33],> 25000 nM
same,TGI,[33],> 25 µM
same,GI50,[34],> 25000 nM
same,TGI,[34],> 25000 nM
same,GI50,[35],> 25000 nM
same,TGI,[35],> 25 µM
same,GI50,[36],> 25000 nM
same,TGI,[36],> 25000 nM
same,GI50,[37],> 25000 nM
same,TGI,[37],> 25 µM
same,GI50,[38],> 22800 nM
same,TGI,[38],> 25000 nM
same,GI50,[39],> 25000 nM
same,TGI,[39],> 25000 nM
same,GI50,[40],> 25000 nM
same,TGI,[40],> 25 µM
same,GI50,[41],> 25000 nM
same,TGI,[41],> 25000 nM
same,GI50,[42],> 25000 nM
same,TGI,[42],> 25000 nM
same,GI50,[43],> 25000 nM
same,TGI,[43],> 25000 nM
same,GI50,[44],> 25000 nM
same,TGI,[44],> 25 µM
same,GI50,[45],> 25000 nM
same,TGI,[45],> 25 µM
same,GI50,[46],> 23200 nM
same,TGI,[46],> 25000 nM
same,GI50,[47],> 25000 nM
same,TGI,[47],> 25000 nM
same,GI50,[48],> 25000 nM
same,TGI,[48],> 25000 nM
same,GI50,[49],> 25000 nM
same,TGI,[49],> 25 µM
same,GI50,[50],> 25000 nM
same,TGI,[50],> 25000 nM
same,GI50,[57],> 25 µM
same,TGI,[57],> 25 µM
same,GI50,[51],> 25000 nM
same,TGI,[51],> 25000 nM
same,GI50,[52],> 25000 nM
same,TGI,[52],> 25 µM
same,GI50,[53],> 25000 nM
same,TGI,[53],> 25000 nM
same,GI50,[54],> 25000 nM
same,TGI,[54],> 25 µM
same,GI50,[55],24.8 µM
same,TGI,[55],> 25 µM
same,GI50,[56],> 17300 nM
same,TGI,[56],> 25000 nM
